From paper PMC4798913 (ACS chemical biology, 2015)

How the values were obtained:
[1] = target: PRMT5 (Homo sapiens, UniProt O14744); experiment: PRMT biochemical scintillation proximity assay; conditions: for inhibition of type II PRMT (PRMT5): concentration not given
[2] = target: T1, PRMT9 (Homo sapiens, UniProt Q6P2P2); experiment: PRMT biochemical scintillation proximity assay; conditions: for inhibition of type II PRMT (PRMT9): concentration not given
T1 sequence (Q6P2P2 1-845): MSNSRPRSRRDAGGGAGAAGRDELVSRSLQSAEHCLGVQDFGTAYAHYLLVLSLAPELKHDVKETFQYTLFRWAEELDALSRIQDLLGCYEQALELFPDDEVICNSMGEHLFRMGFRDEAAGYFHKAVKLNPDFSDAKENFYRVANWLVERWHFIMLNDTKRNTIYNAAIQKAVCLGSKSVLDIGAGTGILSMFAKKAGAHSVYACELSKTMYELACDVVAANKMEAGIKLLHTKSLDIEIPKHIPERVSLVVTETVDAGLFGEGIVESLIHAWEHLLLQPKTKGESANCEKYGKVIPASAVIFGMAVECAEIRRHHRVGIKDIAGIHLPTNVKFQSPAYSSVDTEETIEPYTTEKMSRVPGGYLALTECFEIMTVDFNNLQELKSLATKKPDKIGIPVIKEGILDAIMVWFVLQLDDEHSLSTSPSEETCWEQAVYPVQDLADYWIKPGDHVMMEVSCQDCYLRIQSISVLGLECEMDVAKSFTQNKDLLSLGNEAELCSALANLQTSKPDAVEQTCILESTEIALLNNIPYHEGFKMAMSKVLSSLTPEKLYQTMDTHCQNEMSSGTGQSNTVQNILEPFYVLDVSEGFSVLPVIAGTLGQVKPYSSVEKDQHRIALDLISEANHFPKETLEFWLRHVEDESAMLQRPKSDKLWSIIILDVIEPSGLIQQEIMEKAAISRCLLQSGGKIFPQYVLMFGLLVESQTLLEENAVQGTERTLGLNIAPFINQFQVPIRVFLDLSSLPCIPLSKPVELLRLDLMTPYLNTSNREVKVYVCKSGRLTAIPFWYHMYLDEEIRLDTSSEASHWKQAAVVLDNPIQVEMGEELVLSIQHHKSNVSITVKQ

[3] = target: T2, PRMT7 (Homo sapiens, UniProt Q9NVM4); experiment: PRMT biochemical scintillation proximity assay; conditions: for inhibition of type III PRMT (PRMT7): concentration not given
T2 sequence (Q9NVM4 1-692): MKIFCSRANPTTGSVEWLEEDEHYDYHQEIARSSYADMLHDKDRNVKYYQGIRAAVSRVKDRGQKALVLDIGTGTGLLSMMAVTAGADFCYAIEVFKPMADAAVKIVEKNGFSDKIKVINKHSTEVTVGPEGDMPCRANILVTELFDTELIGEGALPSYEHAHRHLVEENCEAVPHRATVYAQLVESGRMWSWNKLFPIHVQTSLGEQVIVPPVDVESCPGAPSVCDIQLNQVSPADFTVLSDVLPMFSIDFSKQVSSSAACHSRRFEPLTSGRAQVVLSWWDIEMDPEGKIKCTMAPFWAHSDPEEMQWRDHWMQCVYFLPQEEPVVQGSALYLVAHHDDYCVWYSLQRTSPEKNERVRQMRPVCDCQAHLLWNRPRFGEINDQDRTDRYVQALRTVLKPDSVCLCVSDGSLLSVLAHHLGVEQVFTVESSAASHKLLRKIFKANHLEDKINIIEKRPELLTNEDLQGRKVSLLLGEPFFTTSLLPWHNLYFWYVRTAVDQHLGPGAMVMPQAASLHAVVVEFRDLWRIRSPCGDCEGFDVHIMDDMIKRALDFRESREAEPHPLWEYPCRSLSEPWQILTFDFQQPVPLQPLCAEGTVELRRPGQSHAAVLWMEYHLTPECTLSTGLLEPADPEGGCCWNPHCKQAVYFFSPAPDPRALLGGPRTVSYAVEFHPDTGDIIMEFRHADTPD

[4] = tested on: MCF7 cells; experiment: Global arginine methylation Western blot; assay type: cell-based; conditions: two days (48 h)
[5] = target: PRMT3 (Homo sapiens, UniProt O60678); experiment: PRMT biochemical scintillation proximity assay; conditions: for IC50: read-out: IC50 PRMT3, substrate at Km, triplicate, Mean ± SD, NI: no inhibition
Chain of PRMT3 (O60678 whole entry): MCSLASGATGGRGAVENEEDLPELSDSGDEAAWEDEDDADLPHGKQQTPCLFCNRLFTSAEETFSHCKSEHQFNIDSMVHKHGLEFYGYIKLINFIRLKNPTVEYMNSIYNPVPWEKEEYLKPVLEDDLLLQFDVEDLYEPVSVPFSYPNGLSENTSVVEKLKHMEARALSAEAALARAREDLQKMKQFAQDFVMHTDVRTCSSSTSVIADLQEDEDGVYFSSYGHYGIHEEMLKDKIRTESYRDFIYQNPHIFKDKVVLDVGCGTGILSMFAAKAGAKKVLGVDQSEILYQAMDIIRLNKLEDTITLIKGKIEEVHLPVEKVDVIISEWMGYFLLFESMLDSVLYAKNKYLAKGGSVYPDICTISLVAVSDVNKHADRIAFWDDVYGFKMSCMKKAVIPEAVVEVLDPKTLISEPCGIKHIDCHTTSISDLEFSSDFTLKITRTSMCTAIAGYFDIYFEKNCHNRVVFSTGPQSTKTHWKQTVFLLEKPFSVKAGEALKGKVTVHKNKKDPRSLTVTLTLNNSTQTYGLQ

[6] = target: T3, PRMT1 (Homo sapiens, UniProt Q99873); experiment: PRMT biochemical scintillation proximity assay; conditions: read-out: IC50 PRMT1; substrate at Km; triplicate, Mean ± SD; NI: no inhibition
T3 sequence (Q99873 whole entry): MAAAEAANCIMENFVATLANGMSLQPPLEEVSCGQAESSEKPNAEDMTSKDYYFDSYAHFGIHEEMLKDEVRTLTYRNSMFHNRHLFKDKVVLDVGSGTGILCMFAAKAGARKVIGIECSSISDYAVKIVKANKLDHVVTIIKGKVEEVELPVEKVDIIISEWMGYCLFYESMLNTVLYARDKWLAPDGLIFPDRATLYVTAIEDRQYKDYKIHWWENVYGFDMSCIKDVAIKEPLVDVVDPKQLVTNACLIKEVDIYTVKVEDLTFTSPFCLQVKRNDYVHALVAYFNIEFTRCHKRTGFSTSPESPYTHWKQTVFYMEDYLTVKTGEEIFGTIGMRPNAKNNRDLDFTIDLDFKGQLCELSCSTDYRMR

[7] = target: T4, PRMT4 (Homo sapiens, UniProt Q86X55); experiment: PRMT biochemical scintillation proximity assay; conditions: read-out: IC50 PRMT4; substrate at Km; triplicate, Mean ± SD; NI: no inhibition
T4 sequence (Q86X55 1-608): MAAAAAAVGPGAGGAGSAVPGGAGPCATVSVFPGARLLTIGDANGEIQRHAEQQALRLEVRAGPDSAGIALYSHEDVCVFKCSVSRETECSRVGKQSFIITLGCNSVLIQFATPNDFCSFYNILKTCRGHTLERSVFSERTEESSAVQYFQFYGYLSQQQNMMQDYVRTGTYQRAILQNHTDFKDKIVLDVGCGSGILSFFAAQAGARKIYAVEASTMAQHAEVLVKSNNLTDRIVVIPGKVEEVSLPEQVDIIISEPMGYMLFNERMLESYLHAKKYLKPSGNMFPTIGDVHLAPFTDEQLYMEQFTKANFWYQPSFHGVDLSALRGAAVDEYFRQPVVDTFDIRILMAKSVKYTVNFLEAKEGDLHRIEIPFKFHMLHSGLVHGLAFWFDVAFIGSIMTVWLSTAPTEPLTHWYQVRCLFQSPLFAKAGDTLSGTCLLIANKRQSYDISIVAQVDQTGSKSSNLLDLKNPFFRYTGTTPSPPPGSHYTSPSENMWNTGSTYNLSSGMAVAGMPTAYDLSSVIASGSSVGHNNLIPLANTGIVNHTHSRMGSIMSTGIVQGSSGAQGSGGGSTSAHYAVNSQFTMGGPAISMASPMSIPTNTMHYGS

[8] = target: T3, PRMT1; experiment: Cellular PRMT1 assay; assay type: cell-based; conditions: MCF7 cells, 48 h
[9] = tested on: 25 PKMTs and DNMTs, and 3 histone lysine demethylases; experiment: Selectivity panel of methyltransferases and demethylases; assay type: biochemical; conditions: up to 10 μM (tested at 1 μM and 10 μM)
[10] = tested on: 9 methyllysine or methylarginine reader proteins; experiment: DSF or DSLS binding to reader proteins
[11] = tested on: HEK293 cells; experiment: Cell growth assay; assay type: cell-based; conditions: 1 μM, 4-day and long-term (10 days) treatment
[12] = tested on: eight different cell lines; experiment: Cell growth assay; assay type: cell-based; conditions: 96 h treatment
[13] = tested on: HEK293 cells; experiment: Global arginine methylation Western blot; conditions: two days
[14] = target: PRMT6 (Homo sapiens, UniProt Q96LA8); conditions: 100 μM SAM; PRMT6 alone Tm = 52 °C
Chain of PRMT6 (Q96LA8 whole entry): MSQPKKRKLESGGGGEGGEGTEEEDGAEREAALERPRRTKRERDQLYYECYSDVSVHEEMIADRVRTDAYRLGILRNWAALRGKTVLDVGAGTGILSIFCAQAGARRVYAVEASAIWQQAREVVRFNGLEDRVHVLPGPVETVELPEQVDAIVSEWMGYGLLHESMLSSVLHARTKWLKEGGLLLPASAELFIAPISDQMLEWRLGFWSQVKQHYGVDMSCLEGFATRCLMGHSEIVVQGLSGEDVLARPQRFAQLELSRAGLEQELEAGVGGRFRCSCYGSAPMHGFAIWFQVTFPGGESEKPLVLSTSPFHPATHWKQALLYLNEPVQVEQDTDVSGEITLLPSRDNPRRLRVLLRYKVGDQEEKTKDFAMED

Chain of PRMT5 (O14744 whole entry): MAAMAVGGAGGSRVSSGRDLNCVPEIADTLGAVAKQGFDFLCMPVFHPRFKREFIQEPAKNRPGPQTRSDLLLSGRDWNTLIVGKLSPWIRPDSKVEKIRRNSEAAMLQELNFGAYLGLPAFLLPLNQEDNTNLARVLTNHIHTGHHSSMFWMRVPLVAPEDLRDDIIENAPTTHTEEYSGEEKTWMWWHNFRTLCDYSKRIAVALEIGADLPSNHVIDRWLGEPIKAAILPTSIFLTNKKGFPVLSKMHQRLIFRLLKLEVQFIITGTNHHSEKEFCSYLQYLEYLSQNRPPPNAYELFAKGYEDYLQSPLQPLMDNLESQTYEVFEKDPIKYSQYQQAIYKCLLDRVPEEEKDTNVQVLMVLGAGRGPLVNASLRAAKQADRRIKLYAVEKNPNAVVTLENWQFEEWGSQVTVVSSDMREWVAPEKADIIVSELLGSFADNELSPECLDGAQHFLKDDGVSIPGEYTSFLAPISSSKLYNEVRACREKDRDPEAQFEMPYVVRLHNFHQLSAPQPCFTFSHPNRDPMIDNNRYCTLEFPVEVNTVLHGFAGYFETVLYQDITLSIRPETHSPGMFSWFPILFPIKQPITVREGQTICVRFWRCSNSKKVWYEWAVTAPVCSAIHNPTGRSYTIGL
Chain of PRMT5 (Q9BQA1 whole entry partner): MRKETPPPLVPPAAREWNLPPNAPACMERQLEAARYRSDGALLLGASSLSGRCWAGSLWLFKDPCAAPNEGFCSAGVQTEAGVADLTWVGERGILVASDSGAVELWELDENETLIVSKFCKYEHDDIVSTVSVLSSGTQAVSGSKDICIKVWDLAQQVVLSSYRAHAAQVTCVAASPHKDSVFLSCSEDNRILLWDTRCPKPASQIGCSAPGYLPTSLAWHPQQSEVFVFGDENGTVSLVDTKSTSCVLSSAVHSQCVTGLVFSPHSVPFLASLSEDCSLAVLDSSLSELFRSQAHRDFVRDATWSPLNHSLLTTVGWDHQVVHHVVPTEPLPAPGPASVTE

Row | IC50 [5] | IC50 [6] | IC50 [7] | effect on cellular levels of H4R3me2a [8] | Structure (SMILES) | global levels of arginine asymmetric dimethylation (Rme2a) [4] | global levels of arginine monomethylation (Rme1) [4] | global levels of arginine symmetric dimethylation (Rme2s) [4] | other results
1 | – | – | – | – | CN(CCN)Cc1n[nH]nc1-c1cccc(C(F)(F)F)c1 [Compound 1] | – | – | – | inhibition of type II PRMT (PRMT5) [1]: did not inhibit; inhibition of type II PRMT (PRMT9) [2]: did not inhibit; inhibition of type III PRMT (PRMT7) [3]: did not inhibit
2 | – | – | – | – | CN(CCN)Cc1c[nH]cc1-c1cccc(C(F)(F)F)c1 [Compound 2] | – | – | – | inhibition of type II PRMT (PRMT5) [1]: did not inhibit; inhibition of type II PRMT (PRMT9) [2]: did not inhibit; inhibition of type III PRMT (PRMT7) [3]: did not inhibit
3 | > 10 µM | > 10 µM | > 10 µM | did not decrease | CC(C)Oc1ccc(-c2c[nH]cc2CN(C)CC(N)=O)cc1 [Compound 5] | did not change | did not change | did not change | –
4 | > 10 µM | > 10 µM | > 10 µM | did not decrease | CC(C)Oc1ccc(-c2c[nH]cc2C(=O)N(C)CCN)cc1 [Compound 6] | did not change | did not change | did not change | –
5 | – | – | – | – | CC(C)Oc1ccc(-c2c[nH]cc2CN(C)CCN)cc1 [MS023] | significant decrease | increase | increase | inhibition of PRMT5 (type II) ([1]; concentrations up to 10 μM): did not inhibit; pattern of inhibition (MOA) for PRMT3 ([5]; IC50 at different SAM and peptide concentrations): noncompetitive with the peptide substrate but uncompetitive with the cofactor SAM; inhibition of 25 PKMTs and DNMTs and 3 histone lysine demethylases [9]: did not inhibit; binding to 9 methyllysine or methylarginine reader proteins [10]: did not show binding; effect on cell growth [11]: greatly affecting cell growth; effect on cell growth ([12]; concentrations up to 1 μM, all lines except HEK293): did not significantly impact cell growth; effect on cell growth ([12]; higher concentrations (e.g., 10 μM, 50 μM)): decreased cell growth in most of tested cell lines; inhibition of PRMT9 (type II) ([2]; concentrations up to 10 μM): did not inhibit; global levels of arginine asymmetric dimethylation (Rme2a) [13]: significant decrease; global levels of arginine monomethylation (Rme1) [13]: increase; global levels of arginine symmetric dimethylation (Rme2s) [13]: increase; inhibition of PRMT7 (type III) ([3]; concentrations up to 10 μM): did not inhibit
6 | > 10 µM | > 10 µM | > 10 µM | did not decrease | CC(C)Oc1ccc(-c2c[nH]cc2CN(C)CCO)cc1 [MS094] | did not change | did not change | did not change | –
7 | – | – | – | – | C[S+](CC[C@H](N)C(=O)O)C[C@H]1O[C@@H](n2cnc3c(N)ncnc32)[C@H](O)[C@@H]1O (stereo partly drawn) [SAM, S-5′-adenosyl-L-methionine] | – | – | – | ΔTm PRMT6 (DSF) [14]: 1.6 °C
